From patent US6777445B2, “Fullerene pharmaceutical compositions for preventing or treating disorders” (priority 2000, dated 2004)

Test system: E. coli
Assay: E. coli-induced meningitis death, C60(C3) given immediately before E. coli (Test 1)
Assay type: in vivo, B6 mice
Settings: 6 mg/kg i.p. C60(C3), again at 24 and 48 hours
Experimental: E. coli ATCC 10536 was cultured in Luria-Bertain (LB) broth (1% NaCl, 1% tryptone, 0.5% yeast extract) for 12 hours and was subcultured in fresh medium for another 3 h. The concentration of E. coli was determined with a spectrophotometer (Beckman Instrument, Somerset, N.J.), with an optical density at 600 nm of 1 equal to […] (Wang, S. D., et al., J. Immunol. 152:5014-5021). For the induction of meningitis, groups of three to four mice were given intracerebral injections directly into the temporal area of a volume of 5×10^5 E. coli cells diluted in saline. The 100% lethal dose (LD100) by intracerebral injection in B6 mice is 5×10^5 E. coli cells. The animals were observed every 12 hours for a total of 6 days. In some experiments, the brains were aseptically removed and were homogenized with 3% gelatin (Difco Laboratories, Detroit, Mich.) in PBS. The samples were serial diluted, poured in agar plates, and incubated at 37° C. overnight. The number of colony forming units (CFU) of E. coli was quantitated and was expressed as the mean±standard deviation per mouse. […] The growth curve of E. coli was determined in LB broth to evaluate the direct antimicrobial activity of C60(C3).
Groups of 10 B6 mice were inoculated intracerebrally with 5×10^5 E. coli per mouse. […] The mice were monitored for death every 12 hours for 6 days.

## C[C@@H]1C[C@H]2[C@@H]3CCC4=CC(=O)C=C[C@]4(C)[C@@]3(F)[C@@H](O)C[C@]2(C)[C@@]1(O)C(=O)CO [dexamethasone]
  mice protected from E. coli-induced death: 20%
